Patent US20240307575A1, “METHODS FOR […] MATTER” (priority 2021, published 2024)
“And” between values parts separate entries of the source, which are not always exact repeats. Equal entries are not always repeated. Where two headings read alike, the source gives them in different places.

How the values were obtained:
Total pathogen = experiment: Example 4: total pathogen count after NaDCC and/or H2O2 pulses; type: cell-based; settings: for Total pathogen Count: control 490,000; for Fold-Reduction: versus control
Protocol: (§1) Aqueous solutions of NaDCC at variating concentrations from 1% [w/w] up to 5% [w/w] were prepared. […] Table 5 describes various sterilants and their effects:
(§2) Each pulse with disinfectant consisted of vacuum to 1 mbar, then introduction of a sterilant to 100 mbar, 6 minutes of keeping the sterilant at that pressure, introduction of air to 500 mbar, then vacuum.

Yeast & Molds = experiment: Example 4: yeast and molds count after NaDCC and/or H2O2 pulses; type: cell-based; settings: control 152,000
Protocol: as §1, §2

total count [1] = settings: hydrogen peroxide solution 50% in water, control 208,800
Protocol: (§3) A control sample was used, which was not treated, to show microbial load before treatment.
(§4) In each of the trials above, the H2O2 solution was introduced over a period of 3 minutes until a pressure of 70-100 mbar, by introduction of 4 injections, each injection of 10 ml. […] Some of the batches indicating “vent 700” were slowly vented to 700 mbar with air.

yeast and mold = settings: hydrogen peroxide solution 50% in water, 40° C. 40 ml + 1 m; control 20,800; listed as H2O2
Protocol: as §3, §4

total count [2] = experiment: Example 2, Table 3: total count after hydrogen peroxide pulses with air or ozone, with or without ozone preheat; type: cell-based; settings: HPO to 75 mbar + air to 500 mbar 40° C. one pulse, control 130,000
Protocol: (§5) In table 3, the samples were all preheated to, 40° C. Some of the samples, indicated “O3 preheat” were preheated in the presence of ozone at atmospheric pressure. […] Air was subsequently introduced to a pressure of 500 mbar. Then the chamber was evacuated.

yeasts & molds = experiment: Example 2, Table 3: yeast and mold count after hydrogen peroxide pulses with air or ozone, with or without ozone preheat; type: cell-based; settings: HPO to 75 mbar + air to 500 mbar 40° C. one pulse, control 1,950
Protocol: as §5

Yeast & Mold = settings: for Yeast & Mold: HPO to 60 mbar 6 minutes, air 500 mbar 6 minutes, 40°, control 1,150,000; for Yeast & Mold Fold-Reduction: versus control
Protocol: (§6) For two of the samples, no preheating was performed, and for two of the samples, preheating was performed. Preheating involved warming the plant matter in the chamber at 40° C. for 5 minutes. Either one or two pulses of sterilant were performed. All pulses were performed at 40°. Before each pulse, the pressure in the chamber was reduced to 1 mbar.
(§7) Then, air was added and pressure was maintained at 500 mbar for 6 minutes.

total count [3] = settings: for Total Count: HPO to 60 mbar 6 minutes, air 500 mbar 6 minutes, 40°, control 1,350,000; for Total Count Fold-Reduction: versus control
Protocol: as §6, §7

Aspergillus brasiliensis = settings: for mean log reduction: 15% [w/w] hydrogen peroxide vapor, mean of batches 1-3
Protocol: (§8) In this example, cannabis inflorescence (200 mg) was thoroughly sterilized, then inoculated by soaking in 30 ml of microbial suspension, using each of the microbes in the amounts described in table 7 below, including a microbe mix, consisting of a mixture of all 4 microbes in the table.
(§9) After soaking each sample of inflorescence in the respective microbial suspension, each sample was air dried in a laminar flow dryer overnight for 18 hours and refrigerated until sterilization was initiated. Inflorescence was sterilized 24, 48 and 72 hours post inoculation, designated batch 1, batch 2 and batch 3, respectively. Microbial load analysis was performed after each sterilization day. Samples were also inoculated, and not sterilized, to serve as controls. A saline solution was applied to some of the samples instead of a microbial suspension, to serve as a control.
(§10) Analysis of microbial count was performed to samples before and after sterilization, and each microbe count was determined using sub-samples of […] each from each sample, and was performed in triplicate. The sub-samples were ground in 20 ml of saline solution, seeded in a petri dish with agar, which were then incubated at 37° C. for 48 hours, for counting of colonies, to determine number of colony forming units (CFU) per cannabis sample. Logarithmic reduction of pathogen as compared to non-sterilized sample was determined.
(§11) Samples of cannabis inflorescence (200 mg) were introduced into a vacuum chamber in either a top tray or a middle tray. The top tray was located in the uppermost location in the chamber, where the highest temperature is measured. The temperature was set to be maintained at 50° C., however, due to the fact that heat rises within the chamber, and that sterilant solution was introduced to the chamber as a vapor having a temperature of about 140-150° C., in some of the experiments the temperature in the uppermost chamber reached 54° C.±1° C. and in some 58° C.±2° C. Two or three pulses of disinfection were performed for each sample, and the results are described in Table 8. In each pulse, pressure was reduced to 3±2 mbar. […] Then, air was added and pressure was maintained at 500 mbar for 6 minutes at that pressure. The air was then removed from the chamber and the pressure reduced to 3±2 mbar. This process constitutes one pulse. One or two additional pulses were performed for samples, for a total of two pulses per sample, or three pulses per sample. In the final pulse, after initiating a vacuum, air was then introduced and the chamber was […] to a pressure of 1 atmosphere.
(§12) For each pathogen, mean log reduction was calculated by log10 transformation of CFU values, analyzing each microbial treatment process separately. Sterilization processes were compared with a 1-way ANOVA on log transformed data.

Candida albicans = settings: for mean log reduction: 15% [w/w] hydrogen peroxide vapor, mean of batches 1-3
Protocol: as §8, §9, §10, §11, §12

E. Coli = settings: 15% [w/w] hydrogen peroxide vapor, mean of batches 1-3
Protocol: as §8, §9, §10, §11, §12

Microbe mix (all 4) = settings: 15% [w/w] hydrogen peroxide vapor, mean of batches 1-3
Protocol: as §8, §9, §10, §11, §12

Pseudomonas aeruginosa = settings: 15% [w/w] hydrogen peroxide vapor, mean of batches 1-3
Protocol: as §8, §9, §10, §11, §12

[4] = Preheat (40° C. for 5 minutes), one pulse
[5] = Preheat (40° C. for 5 minutes), two pulses

In the case of `O=c1nc([O-])n(Cl)c(=O)n1Cl.[Na+]` [NaDCC, Sodium dichloroisocyanurate], the “Total pathogen Count” value (Total pathogen; NaDCC 1% [w/w], 1 pulse) is reported as 35,100, the Fold-Reduction (Total pathogen; NaDCC 1% [w/w], 1 pulse) is reported as 14 and the “Total pathogen Count” value (Total pathogen; NaDCC 1% [w/w], 2 pulses) is reported as 17,900. For the same compound, the Fold-Reduction (Total pathogen; NaDCC 1% [w/w], 2 pulses) was 27, the “Total pathogen Count” value (Total pathogen; NaDCC 2% [w/w], 1 pulse) was 24,500 and the Fold-Reduction (Total pathogen; NaDCC 2% [w/w], 1 pulse) was 20. The “Total pathogen Count” value (Total pathogen; NaDCC 2% [w/w], 2 pulses) was 11,075, the Fold-Reduction (Total pathogen; NaDCC 2% [w/w], 2 pulses) was 44 and the “Total pathogen Count” value (Total pathogen; NaDCC 5% [w/w], 1pulse) was 32,667. For the same compound, the Fold-Reduction (Total pathogen; NaDCC 5% [w/w], 1pulse) was 15, the “Total pathogen Count” value (Total pathogen; NaDCC 5% [w/w], 2 pulses) was 40,833 and the Fold-Reduction (Total pathogen; NaDCC 5% [w/w], 2 pulses) was 12. The “Yeast & Molds Count” value (Yeast & Molds; NaDCC 1% [w/w], 1 pulse) was 10,857, the “Yeast & Molds Count” value (Yeast & Molds; NaDCC 1% [w/w], 2 pulses) was 5,553 and the “Yeast & Molds Count” value (Yeast & Molds; NaDCC 2% [w/w], 1 pulse) was 7,600. For the same compound, the “Yeast & Molds Count” value (Yeast & Molds; NaDCC 2% [w/w], 2 pulses) was 3,436, the “Yeast & Molds Count” value (Yeast & Molds; NaDCC 5% [w/w], 1pulse) was 10,133 and the “Yeast & Molds Count” value (Yeast & Molds; NaDCC 5% [w/w], 2 pulses) was 12,667.

With `OO` [hydrogen peroxide] the TC (total count [1]; 30° C. 40 ml, 200 g inflorescence) was 31,000 cfu/ml, the TC (total count [1]; 40° C. 40 ml + 1 m + Vent700, listed as H2O2) was 12,000 cfu/ml and 19,000 cfu/ml and the TC (total count [1]; 40° C. 40 ml, listed as H2O2) was 15,000 cfu/ml and 10,000 cfu/ml. The “Y&M” value (yeast and mold) was 2,600 cfu/ml and 2,500 cfu/ml, the TC (total count [2]; sample weight 100 gr) was 11,000 cfu/ml and the TC (total count [2]; sample weight 300 gr) was 48,000 cfu/ml. For the same compound, the “Y&M” value (yeasts & molds; sample weight 100 gr) was 100 cfu/ml, the “Y&M” value (yeasts & molds; sample weight 300 gr) was 30 cfu/ml and the “Yeast & Mold” value (Yeast & Mold; No preheat, one pulse) was 19,828 cfu/ml. The “Yeast & Mold Fold-Reduction” value (Yeast & Mold; No preheat, one pulse) was 58, the “Yeast & Mold” value (Yeast & Mold; No preheat, two pulses) was 3,249 cfu/ml and the “Yeast & Mold Fold-Reduction” value (Yeast & Mold; No preheat, two pulses) was 354. The “Yeast & Mold” value (Yeast & Mold; [4]) was 3,433 cfu/ml, the “Yeast & Mold” value (Yeast & Mold; [5]) was 415 cfu/ml and the “Yeast & Mold Fold-Reduction” value (Yeast & Mold; Preheat, one pulse) was 335. The “Yeast & Mold Fold-Reduction” value (Yeast & Mold; Preheat, two pulses) was 2,770, the “Total Count” value (total count [3]; No preheat, one pulse) was 5,556 cfu/ml and the “Total Count Fold-Reduction” value (total count [3]; No preheat, one pulse) was 243. The “Total Count” value (total count [3]; No preheat, two pulses) was 3,082 cfu/ml, the “Total Count Fold-Reduction” value (total count [3]; No preheat, two pulses) was 438 and the “Total Count” value (total count [3]; [4]) was 2,316 cfu/ml. The “Total Count” value (total count [3]; [5]) was 1,028 cfu/ml, the “Total Count Fold-Reduction” value (total count [3]; Preheat, one pulse) was 583 and the “Total Count Fold-Reduction” value (total count [3]; Preheat, two pulses) was 1,313. The “decontamination, reduction of microbes” value (total count [3]; pre-heating stage and two sterilant pulses combined) was “over 3 orders of magnitude”, the “Total pathogen Count” value (Total pathogen; 50% H2O2, 2 pulses) was 8,033 and the Fold-Reduction (Total pathogen; 50% H2O2, 2 pulses) was 61. The “Yeast & Molds Count” value (Yeast & Molds; 50% H2O2, 2 pulses) was 2,492, the mean log reduction (Aspergillus brasiliensis; 2 pulses, Middle tray) was 2.0 and the mean log reduction (Aspergillus brasiliensis; 2 pulses, Top tray) was 3.3. The mean log reduction (Aspergillus brasiliensis; 3 pulses, Middle tray) was 2.2, the mean log reduction (Aspergillus brasiliensis; 3 pulses, Top tray) was 3.3 and the “reduction in microbial count after treatment” value (Aspergillus brasiliensis; sterilized at 24 hours post inoculation) was 5 log. For the same compound, the mean log reduction (Candida albicans; 2 pulses, Middle tray) was 2.8, the mean log reduction (Candida albicans; 2 pulses, Top tray) was 6.3 and the mean log reduction (Candida albicans; 3 pulses, Middle tray) was 6.0. For the same compound, the mean log reduction (Candida albicans; 3 pulses, Top tray) was 6.3, the “reduction in microbial count” value (Candida albicans; top tray, both 2 and 3 pulses) was at least 6 fold and the mean log reduction (E. Coli; 2 pulses, Middle tray) was 3.5. For the same compound, the mean log reduction (E. Coli; 2 pulses, Top tray) was 3.5, the mean log reduction (E. Coli; 3 pulses, Middle tray) was 4.3 and the mean log reduction (E. Coli; 3 pulses, Top tray) was 4.8. For the same compound, the mean log reduction (Microbe mix (all 4); 2 pulses, Middle tray) was 2.8, the mean log reduction (Microbe mix (all 4); 2 pulses, Top tray) was 5.5 and the mean log reduction (Microbe mix (all 4); 3 pulses, Middle tray) was 5.1. For the same compound, the mean log reduction (Microbe mix (all 4); 3 pulses, Top tray) was 7.0, the mean log reduction (Pseudomonas aeruginosa; 2 pulses, Middle tray) was 3.7 and the mean log reduction (Pseudomonas aeruginosa; 2 pulses, Top tray) was 5.3. The mean log reduction (Pseudomonas aeruginosa; 3 pulses, Middle tray) was 4.7 and the mean log reduction (Pseudomonas aeruginosa; 3 pulses, Top tray) was 7.2.
